Reference: US20240174727A1, “LONG-ACTING NATRIURETIC PEPTIDES AND USES THEREOF” (Eli Lilly and Company, priority 2022, published 2024)
Numbered stars: 1 amine (or outer) side, 2 acyl side, 3 side chain; on linkers, the order of the positions; unused ones are H or OH. Bridge positions count the residues as written; N and C are the ends. Square brackets hold non-standard residues; d marks the D form. * marks the point of attachment. PEG24 = NCCOCCOCCOCCOCCOCCOCCOCCOCCOCCOCCOCCOCCOCCOCCOCCOCCOCCOCCOCCOCCOCCOCCOCCOCCC(=O)O; C20 diacid = O=C(O)CCCCCCCCCCCCCCCCCCC(=O)*; γGlu = O=C(O)[C@H](CCC(=O)[*:2])N[*:1]; CH2 = C([*:1])[*:2]; βAla = NCCC(=O)O

System: plasma cGMP
Experiment: In vivo monkey studies, plasma cGMP ELISA
Parameters: species or system male cynomolgus monkeys
Settings: for Net cGMP (nM) Change from Baseline 0.083 h: 0.083 h postdose; for Net cGMP (nM) Change from Baseline 0.083 h / Net cGMP (nM) Change from Baseline 0.25 h / Net cGMP (nM) Change from Baseline 0.5 h / Net cGMP (nM) Change from Baseline 1 h / Net cGMP (nM) Change from Baseline 2 h / Net cGMP (nM) Change from Baseline 4 h / Net cGMP (nM) Change from Baseline 8 h / Net cGMP (nM) Change from Baseline 12 h / Net cGMP (nM) Change from Baseline 24 h / Net cGMP (nM) Change from Baseline 36 h / Net cGMP (nM) Change from Baseline 48 h / Net cGMP (nM) Change from Baseline 72 h / Net cGMP (nM) Change from Baseline 96 h / Net cGMP (nM) Change from Baseline 120 h / Net cGMP (nM) Change from Baseline 144 h / Net cGMP (nM) Change from Baseline 168 h: monkey plasma; for Net cGMP (nM) Change from Baseline 0.25 h: 0.25 h postdose; for Net cGMP (nM) Change from Baseline 0.5 h: 0.5 h postdose; for Net cGMP (nM) Change from Baseline 1 h: 1 h postdose; for Net cGMP (nM) Change from Baseline 2 h: 2 h postdose; for Net cGMP (nM) Change from Baseline 4 h: 4 h postdose; for Net cGMP (nM) Change from Baseline 8 h: 8 h postdose; for Net cGMP (nM) Change from Baseline 12 h: 12 h postdose; for Net cGMP (nM) Change from Baseline 24 h: 24 h postdose; for Net cGMP (nM) Change from Baseline 36 h: 36 h postdose; for Net cGMP (nM) Change from Baseline 48 h: 48 h postdose; for Net cGMP (nM) Change from Baseline 72 h: 72 h postdose; for Net cGMP (nM) Change from Baseline 96 h: 96 h postdose; for Net cGMP (nM) Change from Baseline 120 h: 120 h postdose; for Net cGMP (nM) Change from Baseline 144 h: 144 h postdose; for Net cGMP (nM) Change from Baseline 168 h: 168 h postdose; for net cGMP levels (result in words): monkeys, single SC dose, plasma
Experimental: In vivo monkey studies were conducted as described in detail below. Young adult-to-adult male cynomolgus monkeys were given a single dose subcutaneously (SC). Blood was collected predose and at various pre-determined timepoints throughout the study period. Aliquot of cynomolgus monkey plasma was received for cyclic cGMP (cGMP) measurement and stored at −80° C. prior to use.
Control plasma was made for determining the recovery rate of spike-in cGMP using Enzo cGMP complete ELISA kit (Enzo Life Sciences, Inc, Farmingdale, NY, cat no. ADI-901-164). Briefly, blood from male Sprague Dawley rats (Inotiv, Indianapolis, IN), about 7 months old, was collected in a BD Vacutainer EDTA tube (Becton Dickinson, Franklin Lakes, NJ, cat no. BD-367856) with volume of approximate 4 mL through retro orbital bleeding. Plasma was prepared by spinning the tube in an Eppendorf Refrigerated Centrifuge 5810R (Brinkman Instruments, Inc, Westbury, NY) at 3500 rpm (3000×g) for 10 min at 4° C. Plasma was collected as Positive Control plasma. Cyclic GMP (cGMP standard from Enzo cGMP complete ELISA kit) was added to the positive control plasma at a final concentration of additional 40 nM. Positive Control and Spiked-in Control plasma were aliquoted and stored at −80° C.
The cGMP content was measured using the Enzo cGMP complete ELISA kit following the manufacturer's directions with modifications as described below. The cGMP standards provided in the kit were diluted 1:3 ranging from 50 nM to 0.023 nM in 1× assay buffer that was diluted in water from 2× assay buffer provided in the kit. The cGMP standards ([…]) were transferred to a 96-well polypropylene plate (Thermo Scientific, cat no. 442587).
Plasma samples were thawed from −80° C. and diluted 1:20 in 1× assay buffer in the above plate with a final volume of 150 μL. Assay buffer was added (150 μL) for both a non-specific binding control (in the absence of cGMP antibody) and a maximum binding control (in the absence of competing cGMP) in duplicate wells. Positive Control and Spiked-in Control plasma were diluted 1:20 in 1× assay buffer with a final volume of 150 μL in duplicate wells of the above plate. All diluted plasma was mixed by pipetting up and down several times.
Acetylation reagent mix was prepared by adding 1-part of acetic anhydride into 2-parts of triethylamine provided in the kit and mixing well using Vortex (Scientific Industries, Inc, Bohemia, NY). All controls, standards, and plasma samples were acetylated by adding 15 μL of acetylation reagent mix into the plate, one column at a time, and shaking for 1 min on a Titer Plate Shaker (Lab-Line Instrument, Inc., Melrose Park, IL) at room temperature. The plate was shaken for an additional 1 min following the acetylation of the last column to ensure the reaction was completed.
Acetylated controls, standard and plasma samples were transferred (100 μL) to an ELISA plate (n=1). Then 50 μL of cGMP conjugate were added to each well followed by the addition of 50 μL cGMP antibody to each well except for two non-specific binding wells, in which 50 μL of 1× assay buffer were added. The plate was then sealed and shaken for 2 h at room temperature on the plate shaker. Following this incubation, the plate was washed five times using 200 μL of 1× wash buffer diluted in water from 5× wash buffer provided in the kit. Then, 200 μL of para-Nitrophenylphosphate (pNpp) were added to each well. The plate was sealed with a new plate sealer and shaken in dark for 1 h at room temperature on the plate shaker. Finally, 50 μL of stop solution were added to each well to stop the enzyme reaction. The plate was then read at 405 nm using SpectraMax Plus (Molecular Devices, San Jose, CA).
The mean absorbance at 405 nm (O.D. 405 nm) for the non-specific binding controls was subtracted from the O.D. 405 nm of all samples. The subtracted O.D. 405 nm of all samples were then normalized with the mean subtracted O.D. 405 nm of the maximum binding controls as B/B0%. […]

Substance: (BFAEN2-γGlu)-KEKEKG-PEG24-EK-βAla-RSS[CFGGKIDRIGHYSGLGC]PSFRHGSPSSGAPPPS-NH2 (EKXRSSCFGGKIDRIGHYSGLGCPSFRHGSPSSGAPPPS; BFAEN2-γGlu, PEG24, C-terminal amide; MOD_RES 1 N-terminal modified with (BFAEN2-beta-Ala)-KEKEKG-PEG24-; wherein BFAEN2 is Bifurcated Fatty Acid Enantiomer 2; SITE 3 X at position 3 is beta-Alanine; MOD_RES 39 Amidation; DISULFID 7..23 Intrachain thioacetal bond) [Example 145]
- Net cGMP (nM) Change from Baseline 0.083 h (dose 25 nmol/kg): -0.82 nM
- Net cGMP (nM) Change from Baseline 0.25 h (dose 25 nmol/kg): 2.94 nM
- Net cGMP (nM) Change from Baseline 0.5 h (dose 25 nmol/kg): 4.37 nM
- Net cGMP (nM) Change from Baseline 1 h (dose 25 nmol/kg): 3.19 nM
- Net cGMP (nM) Change from Baseline 2 h (dose 25 nmol/kg): 8.88 nM
- Net cGMP (nM) Change from Baseline 4 h (dose 25 nmol/kg): 11.23 nM
- Net cGMP (nM) Change from Baseline 8 h (dose 25 nmol/kg): 17.87 nM
- Net cGMP (nM) Change from Baseline 12 h (dose 25 nmol/kg): 22.09 nM
- Net cGMP (nM) Change from Baseline 24 h (dose 25 nmol/kg): 24.61 nM
- Net cGMP (nM) Change from Baseline 36 h (dose 25 nmol/kg): 31.53 nM
- Net cGMP (nM) Change from Baseline 48 h (dose 25 nmol/kg): 21.81 nM
- Net cGMP (nM) Change from Baseline 72 h (dose 25 nmol/kg): 21 nM
- Net cGMP (nM) Change from Baseline 96 h (dose 25 nmol/kg): 14.82 nM
- Net cGMP (nM) Change from Baseline 120 h (dose 25 nmol/kg): 14.4 nM
- Net cGMP (nM) Change from Baseline 144 h (dose 25 nmol/kg): 11.99 nM
- Net cGMP (nM) Change from Baseline 168 h (dose 25 nmol/kg): 5.89 nM
- net cGMP levels (result in words): increased net cGMP levels

Substance: {C20 diacid-γGlu}-EKEKEKGEKPRSSCFGKRIDRIGHQSGLGCPSFRHGSPSSGAPPPS-NH2 (linker 14-30 via CH2) [Example 127]
- Net cGMP (nM) Change from Baseline 0.083 h (dose 50 nmol/kg): -0.87 nM
- Net cGMP (nM) Change from Baseline 0.25 h (dose 50 nmol/kg): 4.09 nM
- Net cGMP (nM) Change from Baseline 0.5 h (dose 50 nmol/kg): 8.84 nM
- Net cGMP (nM) Change from Baseline 1 h (dose 50 nmol/kg): 8.13 nM
- Net cGMP (nM) Change from Baseline 2 h (dose 50 nmol/kg): 8.92 nM
- Net cGMP (nM) Change from Baseline 4 h (dose 50 nmol/kg): 10.25 nM
- Net cGMP (nM) Change from Baseline 8 h (dose 50 nmol/kg): 13.28 nM
- Net cGMP (nM) Change from Baseline 12 h (dose 50 nmol/kg): 18.76 nM
- Net cGMP (nM) Change from Baseline 24 h (dose 50 nmol/kg): 20.16 nM
- Net cGMP (nM) Change from Baseline 36 h (dose 50 nmol/kg): 19.43 nM
- Net cGMP (nM) Change from Baseline 48 h (dose 50 nmol/kg): 18.43 nM
- Net cGMP (nM) Change from Baseline 72 h (dose 50 nmol/kg): 12.9 nM
- Net cGMP (nM) Change from Baseline 96 h (dose 50 nmol/kg): 11.67 nM
- Net cGMP (nM) Change from Baseline 120 h (dose 50 nmol/kg): 9.32 nM
- Net cGMP (nM) Change from Baseline 144 h (dose 50 nmol/kg): 9.3 nM
- Net cGMP (nM) Change from Baseline 168 h (dose 50 nmol/kg): 9.36 nM
- net cGMP levels (result in words): increased net cGMP levels

Substance: {C20 diacid-γGlu}-EKEKEKG[PEG24]EKPRSSCFGKRIDRIGHQSGLGCPSFRHSGSPSSGAPPPSG-NH2 (linker 15-31 via CH2) [Example 132, HOOC-(CH2)18-CO-(γGlu)-EKEKEKG-PEG24-EKPRSS[CFGKRIDRIGHQSGLGCJPSFRHSGSPSSGAPPPSG-NH2]
- Net cGMP (nM) Change from Baseline 0.083 h (dose 25 nmol/kg): 2.96 nM
- Net cGMP (nM) Change from Baseline 0.25 h (dose 25 nmol/kg): 11.54 nM
- Net cGMP (nM) Change from Baseline 0.5 h (dose 25 nmol/kg): 25 nM
- Net cGMP (nM) Change from Baseline 1 h (dose 25 nmol/kg): 29.41 nM
- Net cGMP (nM) Change from Baseline 2 h (dose 25 nmol/kg): 28.64 nM
- Net cGMP (nM) Change from Baseline 4 h (dose 25 nmol/kg): 28.7 nM
- Net cGMP (nM) Change from Baseline 8 h (dose 25 nmol/kg): 24.12 nM
- Net cGMP (nM) Change from Baseline 12 h (dose 25 nmol/kg): 20.96 nM
- Net cGMP (nM) Change from Baseline 24 h (dose 25 nmol/kg): 19.79 nM
- Net cGMP (nM) Change from Baseline 36 h (dose 25 nmol/kg): 17.54 nM
- Net cGMP (nM) Change from Baseline 48 h (dose 25 nmol/kg): 12.7 nM
- Net cGMP (nM) Change from Baseline 72 h (dose 25 nmol/kg): 13.11 nM
- Net cGMP (nM) Change from Baseline 96 h (dose 25 nmol/kg): 11.68 nM
- Net cGMP (nM) Change from Baseline 120 h (dose 25 nmol/kg): 13.22 nM
- Net cGMP (nM) Change from Baseline 144 h (dose 25 nmol/kg): 11.64 nM
- Net cGMP (nM) Change from Baseline 168 h (dose 25 nmol/kg): 7.08 nM
- net cGMP levels (result in words): increased net cGMP levels

Substance: {C20 diacid-γGlu}-EKEKEKG[PEG24]EK[βAla]RSSCFGKRIDRIGHYSGLGCPSFRHGSPSSGAPPPS-NH2 (linker 15-31 via CH2) [Example 106]
- Net cGMP (nM) Change from Baseline 0.083 h (dose 100 nmol/kg): 3.54 nM
- Net cGMP (nM) Change from Baseline 0.25 h (dose 100 nmol/kg): 19.8 nM
- Net cGMP (nM) Change from Baseline 0.5 h (dose 100 nmol/kg): 25.25 nM
- Net cGMP (nM) Change from Baseline 1 h (dose 100 nmol/kg): 24.83 nM
- Net cGMP (nM) Change from Baseline 2 h (dose 100 nmol/kg): 26.38 nM
- Net cGMP (nM) Change from Baseline 4 h (dose 100 nmol/kg): 26.16 nM
- Net cGMP (nM) Change from Baseline 8 h (dose 100 nmol/kg): 14.03 nM
- Net cGMP (nM) Change from Baseline 12 h (dose 100 nmol/kg): 17.64 nM
- Net cGMP (nM) Change from Baseline 24 h (dose 100 nmol/kg): 9.38 nM
- Net cGMP (nM) Change from Baseline 36 h (dose 100 nmol/kg): 12.13 nM
- Net cGMP (nM) Change from Baseline 48 h (dose 100 nmol/kg): 8.71 nM
- Net cGMP (nM) Change from Baseline 72 h (dose 100 nmol/kg): 5.67 nM
- Net cGMP (nM) Change from Baseline 96 h (dose 100 nmol/kg): 6.4 nM
- Net cGMP (nM) Change from Baseline 120 h (dose 100 nmol/kg): 7.88 nM
- Net cGMP (nM) Change from Baseline 144 h (dose 100 nmol/kg): 7.54 nM
- Net cGMP (nM) Change from Baseline 168 h (dose 100 nmol/kg): 7.66 nM
- net cGMP levels (result in words): increased net cGMP levels
